# Assay results from patent US7442710B2, “Substituted phenyl methanones” (Hoffman-La Roche Inc., priority 2005, dated 2008).
# pIC50: −log10 of the molar value.
# Biological target: T1, mGlyT-1b (Mus musculus, UniProt P28571)
# T1 construct: host or cells: Flp-in-CHO cells, stably transfected
# T1 sequence (P28571 1-651 isoform P28571-2): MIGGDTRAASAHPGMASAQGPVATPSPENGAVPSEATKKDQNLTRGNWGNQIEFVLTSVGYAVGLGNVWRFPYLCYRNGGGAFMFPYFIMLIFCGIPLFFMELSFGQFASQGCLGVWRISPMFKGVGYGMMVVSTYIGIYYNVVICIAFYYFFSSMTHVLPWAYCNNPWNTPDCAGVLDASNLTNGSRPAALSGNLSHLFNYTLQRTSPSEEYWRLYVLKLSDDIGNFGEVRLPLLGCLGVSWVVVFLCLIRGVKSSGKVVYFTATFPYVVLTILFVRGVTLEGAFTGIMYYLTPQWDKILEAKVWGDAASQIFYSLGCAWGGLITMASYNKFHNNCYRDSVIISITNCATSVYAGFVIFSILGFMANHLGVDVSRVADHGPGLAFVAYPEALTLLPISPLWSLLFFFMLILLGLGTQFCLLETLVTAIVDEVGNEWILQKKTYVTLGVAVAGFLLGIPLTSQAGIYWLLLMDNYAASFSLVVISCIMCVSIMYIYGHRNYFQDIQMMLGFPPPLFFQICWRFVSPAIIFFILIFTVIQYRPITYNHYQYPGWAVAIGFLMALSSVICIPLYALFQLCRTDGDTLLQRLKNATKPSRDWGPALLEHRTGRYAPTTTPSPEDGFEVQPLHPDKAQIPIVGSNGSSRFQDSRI
# Test: Glycine uptake inhibition assay (mGlyT-1b)
# Format: cell-based
# Conditions: [3H]-glycine uptake, Flp-in-CHO cells transfected with mGlyT-1b cDNA
# Description: DMEM complete medium: Nutrient mixture F-12 (Gibco Life-technologies), fetal bovine serum (FBS) 5%, (Gibco life technologies), Penicillin/Streptomycin 1% (Gibco life technologies), Hygromycin 0.6 mg/ml (Gibco life technologies), Glutamine 1 mM Gibco life technologies).
# Uptake buffer (UB): 150 mM NaCl, 10 mM Hepes-Tris, pH 7.4, 1 mM CaCl2, 2.5 mM KCl, 2.5 mM MgSO4, 10 mM (+) D-glucose. Flp-in™-CHO (Invitrogen Cat n° R758-07)cells stably transfected with mGlyT1b cDNA.
# Glycine uptake inhibition assay (mGlyT-1b)
# On day 1 mammalian cells, (Flp-in™-CHO), transfected with mGlyT-1b cDNA, were plated at the density of 40,000 cells/well in complete F-12 medium, without hygromycin in 96-well culture plates. On day 2, the medium was aspirated and the cells were washed twice with uptake buffer (UB). The cells were then incubated for 20 min at 22° C. with either (i) no potential competitor, (ii) 10 mM non-radioactive glycine, (iii) a concentration of a potential inhibitor. A range of concentrations of the potential inhibitor was used to generate data for calculating the concentration of inhibitor resulting in 50% of the effect (e.g. IC50, the concentration of the competitor inhibiting glycine uptake of 50%). A solution was then immediately added containing [^3H]-glycine 60 nM (11-16 Ci/mmol) and 25 μM non-radioactive glycine. The plates were incubated with gentle shaking and the reaction was stopped by aspiration of the mixture and washing (three times) with ice-cold UB. The cells were lysed with scintillation liquid, shaken 3 hours and the radioactivity in the cells was counted using a scintillation counter.
row,pIC50,SMILES
1,6.46,"CC(C)Oc1ccc(S(C)(=O)=O)cc1C(=O)N1CCc2cccc(Cl)c2C1 [Example 1.30, (8-Chloro-3,4-dihydro-1H-isoquinolin-2-yl)-(2-isopropoxy-5-methanesulfonyl-phenyl)-methanone]"
2,6.32,"COc1ccc2c(c1)CCN(C(=O)c1cc(S(C)(=O)=O)ccc1OC(C)C)C2 [Example 1.40, (2-Isopropoxy-5-methanesulfonyl-phenyl)-(6-methoxy-3,4-dihydro-1H-isoquinolin-2-yl)-methanone]"
3,6.76,"C[C@H](Oc1ccc(S(C)(=O)=O)cc1C(=O)N1CCc2cc(C(F)(F)F)ccc2C1)C(F)(F)F [Example 1.14, [5-Methanesulfonyl-2-((S)-2,2,2-trifluoro-1-methyl-ethoxy)-phenyl]-(6-trifluoromethyl-3,4-dihydro-1H-isoquinolin-2-yl)-methanone]"
4,6.67,"CC(C)Oc1ccc(S(C)(=O)=O)cc1C(=O)N1CCc2ccc(Cl)cc2C1 [Example 1.25, (7-Chloro-3,4-dihydro-1H-isoquinolin-2-yl)-(2-isopropoxy-5-methanesulfonyl-phenyl)-methanone]"
5,7.09,"CS(=O)(=O)c1ccc(-c2ccccc2)c(C(=O)N2CCc3nc(C(F)(F)F)ccc3C2)c1 [Example 1.8, (4-Methanesulfonyl-biphenyl-2-yl)-(2-trifluoromethyl-7,8-dihydro-5H-[1,6]naphthyridin-6-yl)-methanone]"
6,6.34,"CC(C)Oc1ccc(S(C)(=O)=O)cc1C(=O)N1CCc2cc(C#N)ccc2C1 [Example 1.20, 2-(2-Isopropoxy-5-methanesulfonyl-benzoyl)-1,2,3,4-tetrahydro-isoquinoline-6-carbonitrile]"
7,6.79,"CC(C)Oc1ccc(S(C)(=O)=O)cc1C(=O)N1CCc2ccc(Cl)c(Cl)c2C1 [Example 1.26, (7,8-Dichloro-3,4-dihydro-1H-isoquinolin-2-yl)-(2-isopropoxy-5-methanesulfonyl-phenyl)-methanone]"
8,7.34,"CC(C)Oc1ccc(S(C)(=O)=O)cc1C(=O)N1CCc2cc(C(F)(F)F)ccc2C1 [Example 1.12, (2-Isopropoxy-5-methanesulfonyl-phenyl)-(6-trifluoromethyl-3,4-dihydro-1H-isoquinolin-2-yl)-methanone]"
9,6.77,"CS(=O)(=O)c1ccc(-c2ccccc2)c(C(=O)N2CCc3cc(C(F)(F)F)ccc3C2)c1 [Example 1.15, (4-Methanesulfonyl-biphenyl-2-yl)-(6-trifluoromethyl-3,4-dihydro-1H-isoquinolin-2-yl)-methanone]"
10,6.80,"C[C@H](Oc1ccc(S(C)(=O)=O)cc1C(=O)N1CCc2cc(Cl)ccc2C1)C(F)(F)F [Example 1.18, (6-Chloro-3,4-dihydro-1H-isoquinolin-2-yl)-[5-methanesulfonyl-2-((S)-2,2,2-trifluoro-1-methyl-ethoxy)-phenyl]-methanone]"
11,6.32,Cc1c2c(c(C)c3c1OCO3)CN(C(=O)c1cc(S(C)(=O)=O)ccc1OC(C)C)CC2 [Example 1.53]
12,6.49,"CS(=O)(=O)c1ccc(N2CCOCC2)c(C(=O)N2CCc3cc(C(F)(F)F)ccc3C2)c1 [Example 1.13, (5-Methanesulfonyl-2-morpholin-4-yl-phenyl)-(6-trifluoromethyl-3,4-dihydro-1H-isoquinolin-2-yl)-methanone]"
13,6.44,"CC(C)Oc1ccc(S(C)(=O)=O)cc1C(=O)N1CCc2cc(Cl)ccc2C1 [Example 1.19, (6-Chloro-3,4-dihydro-1H-isoquinolin-2-yl)-(2-isopropoxy-5-methanesulfonyl-phenyl)-methanone]"
14,6.80,"CC(C)Sc1ccc(S(C)(=O)=O)cc1C(=O)N1CCc2cc(Cl)ccc2C1 [Example 1.57, (6-Chloro-3,4-dihydro-1H-isoquinolin-2-yl)-(2-isopropylsulfanyl-5-methanesulfonyl-phenyl)-methanone]"
15,6.80,"CC(C)Oc1ccc(S(C)(=O)=O)cc1C(=O)N1CCc2c(ccc3c4ccccc4n(C)c23)C1 [Example 1.47, (2-Isopropoxy-5-methanesulfonyl-phenyl)-(11-methyl-1,2,4,11-tetrahydro-pyrido[4,3-a]carbazol-3-yl)-methanone]"
